Assay results: patent publication US20260199482A1, “BILE ACID-METRONIDAZOLE CONJUGATE AND USE THEREOF” (SOUTH CHINA UNIVERSITY OF TECHNOLOGY, priority 2022, published 2026)
Values after ≈ are worked out from the molar mass of the structure shown. Read-outs that look alike come from different tables or passages of the source.

Legend:
[1] = system: Clostridioides difficile ATCC 43255; assay: MIC determination using broth microdilution method, anaerobic bacteria; format: cell-based; conditions: for MIC: ATCC43255, Clostridioides difficile ATCC 43255, broth microdilution, anaerobic, 37° C., 48 h; for inhibitory effect on Clostridioides difficile (ATCC 43255), in words: comment on Table 1
Procedure: 0.10 g of sterile cycloserine and 3.20 mg of sterile cefoxitin (filtered by a filter membrane and sterilized) were added to every 200 mL, mixed well, and poured into a sterile petri dish for later use.
S3, culture of Clostridioides difficile strain: 1) the strain stored at −80° C. was resuscitated in an anaerobic glove box with a cycloserine-cefoxitin-fructose agar medium plate, and statically cultured at 37° C. in a constant-temperature incubator for 48 h; • 2) single colonies were picked, and statically cultured in the brain heart infusion broth medium overnight at 37° C. in the constant-temperature incubator; and • 3) the bacterial solution that was statically cultured overnight was transferred into the anaerobic glove box with the brain heart infusion broth medium at a ratio of 1:100, and cultured for 3-4 h until the OD600 was between 0.6 and 0.8; and during this process, 5 g/L of yeast extract solution was added to increase a strain concentration.
(§1) The culture process of the strain was operated in the anaerobic glove box. After the operation was completed, the strain was well sealed with an anaerobic bag or an anaerobic box, taken out and then cultured in the constant-temperature incubator.

[2] = system: Bacteroides fragilis ATCC 25285; assay: as above; format: cell-based
Procedure: as §1

[3] = system: Porphyromonas gingivalis ATCC 33277; assay: as above; format: cell-based
Procedure: S5, Culture of Porphyromonas gingivalis strain: • the strain stored at −80° C. was resuscitated in the anaerobic glove box with a Colombian blood agar plate, and statically cultured at 37° C. in the constant-temperature incubator for 5-7 days.
as §1

H. pylori NCTC 11637 = assay: MIC determination using broth microdilution method, Helicobacter pylori; format: cell-based; conditions: for MIC: Helicobacter pylori, NCTC11637; for inhibitory activity against drug-resistant bacteria, in words: metronidazole-resistant H. pylori NCTC 11637, versus metronidazole
Procedure: (§2) • 1) A frozen solution stored at −80° C. was taken out, and thawed at room temperature; 100 μL of bacterial solution was taken with a pipette, coated onto a Columbia blood agar plate (finished-product medium), put invertedly in a […] culture box, placed in a micro-aerobic gas production bag to achieve a micro-aerobic environment, and cultured at 37° C. for 2-3 days. • 2) A sterile inoculation ring was used to pick Helicobacter pylori single colonies (transparent water droplets) grown on the Colombian blood agar medium and inoculated in the above liquid medium; and cultured at 37° C. in a micro-aerobic environment for 3 days. • 3) A required concentration (absorbance) for the experiment was reached after culture, and the bacterial solution was taken for subsequent experiments.
(§3) The drug concentration at which bacteria ceased to grow or grew at the most significant reduction level was referred to as the MIC value.

H. pylori ATCC 43504 = assay: as above; format: cell-based; conditions: for MIC: Helicobacter pylori, ATCC43504; for inhibitory activity against drug-resistant bacteria, in words: metronidazole-resistant H. pylori ATCC 43504, versus metronidazole
Procedure: as §2, §3

H. pylori ATCC 26695 = assay: as above; format: cell-based
Procedure: as §2, §3

[4] = system: H. pylori Sydney strain SS1; assay: as above; format: cell-based
Procedure: as §2, §3

[5] = system: Clostridioides difficile infection (spores, 027 Type); assay: Clostridioides difficile infection (CDI) mouse model; format: in vivo, C57BL/6 mice; conditions: for number of surviving mice: 10 animals per group
Excerpt: • 1) Experimental animals: C57BL/6, 4-6 weeks old, female.
In order to evaluate the efficacy of the compounds of the present application on Clostridioides difficile infection, an animal model of Clostridioides difficile infection was established, as shown in FIG. 1. […] On Day 0, the mice were administrated with 10^5 CFU/mL of spores by gavage; and on Days 1 and 2, the mice were administrated with 10^6 CFU/mL of spores by gavage. Starting from Day 3, the mice were given 7 days of drug treatment, and all mice were euthanized at the end of the experiment, except for the death of mice during the treatment.
Two of the conjugates, SCUT1-2 and SCUT1-6, with the optional in-vitro inhibitory activities were selected. […] The therapeutic effect of the conjugate of the present application in the treatment of Clostridioides difficile infection was evaluated.

[6] = Day 3 (before the administration), 50 mg/kg groups
[7] = ATCC25285, Bacteroides fragilis ATCC 25285, broth microdilution, anaerobic, 37° C., 48 h, read-out: MIC
[8] = ATCC33277, Porphyromonas gingivalis ATCC 33277, broth microdilution, anaerobic, 37° C., 48 h, read-out: MIC
[9] = H. pylori NCTC 11637(R), metronidazole-resistant strain, read-out: MIC
[10] = H. pylori ATCC 43504(R), metronidazole-resistant strain, read-out: MIC
[11] = ATCC26695, H. pylori ATCC 26695(S), metronidazole-susceptible strain, read-out: MIC
[12] = H. pylori Sydney strain SS1, read-out: MIC

SMILES	MIC [1] [µg/mL]	number of mice with diarrhea [5, 6]	number of surviving mice [5, 6]	number of mice with diarrhea ([5]; Day 4, 50 mg/kg)	number of surviving mice ([5]; Day 4, 50 mg/kg)	number of mice with diarrhea ([5]; Day 5, 50 mg/kg)	number of surviving mice ([5]; Day 5, 50 mg/kg)	number of mice with diarrhea ([5]; Day 6, 50 mg/kg)	number of surviving mice ([5]; Day 6, 50 mg/kg)	number of mice with diarrhea ([5]; Day 7, 50 mg/kg)	number of surviving mice ([5]; Day 7, 50 mg/kg)	number of mice with diarrhea ([5]; Day 8, 50 mg/kg)	number of surviving mice ([5]; Day 8, 50 mg/kg)	number of mice with diarrhea ([5]; Day 9, 50 mg/kg)	MIC [2, 7] [µg/mL]	MIC [3, 8] [µg/mL]	MIC (H. pylori NCTC 11637; [9]) [µg/mL]	MIC (H. pylori ATCC 43504; [10]) [µg/mL]	MIC (H. pylori ATCC 26695; [11]) [µg/mL]	MIC [4, 12] [µg/mL]	other results
Cc1ncc([N+](=O)[O-])n1CCOC(=O)CC[C@@H](C)[C@H]1CC[C@H]2[C@@H]3CC[C@@H]4C[C@H](O)CC[C@]4(C)[C@H]3CC[C@]12C [SCUT1-1]	0.5 (≈ 0.944 µM)	–	–	–	–	–	–	–	–	–	–	–	–	–	–	–	–	–	–	–	MIC ([2]; Bacteroides fragilis, ATCC25285, 48 h): 1 µg/mL (≈ 1.89 µM); MIC ([3]; Porphyromonas gingivalis, ATCC33277, 48 h): 2 µg/mL (≈ 3.78 µM); MIC (H. pylori NCTC 11637): 16 µg/mL (≈ 30.2 µM); MIC (H. pylori ATCC 43504): > 128 µg/mL; MIC (H. pylori ATCC 26695; ATCC26695): 8 µg/mL (≈ 15.1 µM); MIC [4]: 8 µg/mL (≈ 15.1 µM)
C[C@H](CCC(=O)O)[C@H]1CC[C@H]2[C@@H]3[C@@H](O)C[C@@H]4C[C@H](O)CC[C@]4(C)[C@H]3CC[C@]12C [UDCA, ursodeoxycholic acid, reference compound]	16 (≈ 40.8 µM)	9 number of mice	10 number of mice	9 number of mice	10 number of mice	7 number of mice	10 number of mice	6 number of mice	10 number of mice	4 number of mice	10 number of mice	5 number of mice	10 number of mice	5 number of mice	> 32	> 32	> 128	> 128	> 32	> 32	number of surviving mice ([5]; Day 9, 50 mg/kg): 10 number of mice
Cc1ncc([N+](=O)[O-])n1CCOC(=O)CC[C@@H](C)[C@H]1CC[C@H]2[C@@H]3[C@H](O)C[C@H]4C[C@H](O)CC[C@]4(C)[C@H]3CC[C@]12C [SCUT1-4]	2 (≈ 3.66 µM)	–	–	–	–	–	–	–	–	–	–	–	–	–	2 (≈ 3.66 µM)	0.5 (≈ 0.916 µM)	4 (≈ 7.33 µM)	4 (≈ 7.33 µM)	4 (≈ 7.33 µM)	4 (≈ 7.33 µM)	inhibitory activity against drug-resistant bacteria, in words (H. pylori NCTC 11637): significantly promoted; inhibitory activity against drug-resistant bacteria, in words (H. pylori ATCC 43504): significantly promoted
Cc1ncc([N+](=O)[O-])n1CCOC(=O)CC[C@@H](C)[C@H]1CC[C@H]2[C@@H]3[C@@H](O)C[C@@H]4C[C@H](O)CC[C@]4(C)[C@H]3CC[C@]12C [SCUT1-2]	0.12 (≈ 0.22 µM)	10 (10) number of mice	10 (10) number of mice	7 number of mice	10 number of mice	4 number of mice	10 number of mice	2 number of mice	10 number of mice	1 number of mice	10 number of mice	1 number of mice	10 number of mice	1 number of mice	1 (≈ 1.83 µM)	0.25 (≈ 0.458 µM)	16 (≈ 29.3 µM)	8 (≈ 14.7 µM)	4 (≈ 7.33 µM)	8 (≈ 14.7 µM)	death of mice during the treatment ([5]; 50 mg/kg, 7 days of drug treatment): no mice died; therapeutic effect, in words ([5]; 50 mg/kg, compared with Metronidazole, UDCA and MIX groups): a good therapeutic effect; number of surviving mice ([5]; Day 9, 50 mg/kg): 10 number of mice; diarrhea rate ([5]; at the endpoint of treatment, 50 mg/kg, Model group 100%): 10%; inhibitory effect on Clostridioides difficile (ATCC 43255), in words [1]: particularly prominent
Cc1ncc([N+](=O)[O-])n1CCOC(=O)CC[C@@H](C)[C@H]1CC[C@H]2[C@@H]3[C@H](O)C[C@@H]4C[C@H](O)CC[C@]4(C)[C@H]3CC[C@]12C [SCUT1-3]	0.12 (≈ 0.22 µM)	–	–	–	–	–	–	–	–	–	–	–	–	–	4 (≈ 7.33 µM)	0.5 (≈ 0.916 µM)	8 (≈ 14.7 µM)	4 (≈ 7.33 µM)	4 (≈ 7.33 µM)	8 (≈ 14.7 µM)	inhibitory effect on Clostridioides difficile (ATCC 43255), in words [1]: particularly prominent; inhibitory activity against drug-resistant bacteria, in words (H. pylori NCTC 11637): significantly promoted; inhibitory activity against drug-resistant bacteria, in words (H. pylori ATCC 43504): significantly promoted
